Measured values as given in US11420958B2, “Aryl and heteroaryl substituted indole compounds” (BRISTOL-MYERS SQUIBB COMPANY, priority 2017, dated 2022).

Tests used:
Format in all cases: cell-based
[1] = target: human TLR9 (Homo sapiens (Human), UniProt Q9NR96); test: TLR9 inhibition reporter assay (HEK-Blue, SEAP); details: HEK-Blue cells overexpressing human TLR9, ODN2006 5 nM stimulation
Outline: (§1)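 After 30 min room-temperature pre-incubation with compound (0.05 nM–50 μM), reporter HEK-Blue lines were activated by ODN2006 5 nM for TLR9, R848 15.9 μM for TLR8 or gardiquimod 7.5 μM for TLR7. SEAP detected after 22 h, 37 °C; inhibition scaled between agonist+DMSO wells and known-inhibitor control.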

[2] = target: human TLR8 (Homo sapiens (Human), UniProt Q9NR97); test: TLR8 inhibition reporter assay (HEK-Blue, SEAP); details: HEK-Blue cells overexpressing human TLR8, R848 15.9 μM stimulation
Sequence of human TLR8 (Q9NR97 27-1041): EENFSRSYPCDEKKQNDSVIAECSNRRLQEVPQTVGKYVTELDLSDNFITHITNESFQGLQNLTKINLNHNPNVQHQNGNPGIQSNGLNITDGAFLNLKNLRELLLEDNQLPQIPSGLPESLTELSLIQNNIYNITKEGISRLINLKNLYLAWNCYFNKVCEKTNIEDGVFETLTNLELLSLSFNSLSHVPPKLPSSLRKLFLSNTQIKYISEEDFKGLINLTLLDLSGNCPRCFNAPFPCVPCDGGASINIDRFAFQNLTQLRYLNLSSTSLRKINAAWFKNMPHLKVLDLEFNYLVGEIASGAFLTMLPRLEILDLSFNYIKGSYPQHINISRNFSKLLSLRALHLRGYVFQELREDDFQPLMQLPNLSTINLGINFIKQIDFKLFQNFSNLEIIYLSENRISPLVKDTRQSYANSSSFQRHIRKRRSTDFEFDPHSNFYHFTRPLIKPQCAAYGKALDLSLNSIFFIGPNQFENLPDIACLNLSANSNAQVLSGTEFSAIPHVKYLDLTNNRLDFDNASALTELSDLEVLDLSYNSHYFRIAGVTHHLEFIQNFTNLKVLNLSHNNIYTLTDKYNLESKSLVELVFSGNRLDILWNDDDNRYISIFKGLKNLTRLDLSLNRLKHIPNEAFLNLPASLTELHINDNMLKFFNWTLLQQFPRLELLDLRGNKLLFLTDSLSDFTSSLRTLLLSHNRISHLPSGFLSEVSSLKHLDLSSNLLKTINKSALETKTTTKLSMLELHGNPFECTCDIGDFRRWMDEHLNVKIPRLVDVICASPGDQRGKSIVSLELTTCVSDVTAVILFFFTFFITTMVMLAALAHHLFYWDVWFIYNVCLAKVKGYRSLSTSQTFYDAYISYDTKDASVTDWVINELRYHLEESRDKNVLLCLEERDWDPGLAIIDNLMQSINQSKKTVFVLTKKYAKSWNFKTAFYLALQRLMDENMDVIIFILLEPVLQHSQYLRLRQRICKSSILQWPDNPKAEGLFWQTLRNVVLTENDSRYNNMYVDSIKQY
Outline: as §1

[3] = target: human TLR7 (Homo sapiens (Human), UniProt Q9NYK1); test: TLR7 inhibition reporter assay (HEK-Blue, SEAP); details: HEK-Blue cells overexpressing human TLR7, gardiquimod 7.5 μM stimulation
Sequence of human TLR7 (Q9NYK1 27-1049): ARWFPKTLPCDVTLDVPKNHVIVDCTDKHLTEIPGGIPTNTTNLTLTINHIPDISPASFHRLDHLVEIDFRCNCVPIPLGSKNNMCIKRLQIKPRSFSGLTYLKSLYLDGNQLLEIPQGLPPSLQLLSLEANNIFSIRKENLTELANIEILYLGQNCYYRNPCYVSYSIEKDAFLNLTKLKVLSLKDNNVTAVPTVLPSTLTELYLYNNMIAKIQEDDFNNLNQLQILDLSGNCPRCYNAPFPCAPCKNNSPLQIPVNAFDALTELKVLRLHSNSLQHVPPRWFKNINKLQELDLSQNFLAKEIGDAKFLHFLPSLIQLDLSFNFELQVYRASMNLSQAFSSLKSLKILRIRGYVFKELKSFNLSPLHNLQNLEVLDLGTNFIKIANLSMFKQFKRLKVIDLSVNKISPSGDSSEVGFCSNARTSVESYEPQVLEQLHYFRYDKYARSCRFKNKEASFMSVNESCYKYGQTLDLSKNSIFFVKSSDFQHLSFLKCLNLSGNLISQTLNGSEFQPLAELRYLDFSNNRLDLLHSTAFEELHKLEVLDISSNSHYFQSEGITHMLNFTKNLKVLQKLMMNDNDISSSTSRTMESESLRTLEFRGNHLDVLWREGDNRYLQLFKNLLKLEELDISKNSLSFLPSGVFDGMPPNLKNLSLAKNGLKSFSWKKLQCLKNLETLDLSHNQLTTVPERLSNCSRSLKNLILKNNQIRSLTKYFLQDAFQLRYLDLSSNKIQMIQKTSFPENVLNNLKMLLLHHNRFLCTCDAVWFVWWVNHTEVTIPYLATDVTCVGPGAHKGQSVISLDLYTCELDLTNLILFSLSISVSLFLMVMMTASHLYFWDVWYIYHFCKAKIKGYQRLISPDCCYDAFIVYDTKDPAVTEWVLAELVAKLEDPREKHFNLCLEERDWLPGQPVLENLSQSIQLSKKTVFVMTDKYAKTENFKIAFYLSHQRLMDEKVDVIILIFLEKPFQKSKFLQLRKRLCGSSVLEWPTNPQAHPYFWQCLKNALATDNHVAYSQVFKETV
Outline: as §1

Sequence of human TLR9 (Q9NR96 26-1032): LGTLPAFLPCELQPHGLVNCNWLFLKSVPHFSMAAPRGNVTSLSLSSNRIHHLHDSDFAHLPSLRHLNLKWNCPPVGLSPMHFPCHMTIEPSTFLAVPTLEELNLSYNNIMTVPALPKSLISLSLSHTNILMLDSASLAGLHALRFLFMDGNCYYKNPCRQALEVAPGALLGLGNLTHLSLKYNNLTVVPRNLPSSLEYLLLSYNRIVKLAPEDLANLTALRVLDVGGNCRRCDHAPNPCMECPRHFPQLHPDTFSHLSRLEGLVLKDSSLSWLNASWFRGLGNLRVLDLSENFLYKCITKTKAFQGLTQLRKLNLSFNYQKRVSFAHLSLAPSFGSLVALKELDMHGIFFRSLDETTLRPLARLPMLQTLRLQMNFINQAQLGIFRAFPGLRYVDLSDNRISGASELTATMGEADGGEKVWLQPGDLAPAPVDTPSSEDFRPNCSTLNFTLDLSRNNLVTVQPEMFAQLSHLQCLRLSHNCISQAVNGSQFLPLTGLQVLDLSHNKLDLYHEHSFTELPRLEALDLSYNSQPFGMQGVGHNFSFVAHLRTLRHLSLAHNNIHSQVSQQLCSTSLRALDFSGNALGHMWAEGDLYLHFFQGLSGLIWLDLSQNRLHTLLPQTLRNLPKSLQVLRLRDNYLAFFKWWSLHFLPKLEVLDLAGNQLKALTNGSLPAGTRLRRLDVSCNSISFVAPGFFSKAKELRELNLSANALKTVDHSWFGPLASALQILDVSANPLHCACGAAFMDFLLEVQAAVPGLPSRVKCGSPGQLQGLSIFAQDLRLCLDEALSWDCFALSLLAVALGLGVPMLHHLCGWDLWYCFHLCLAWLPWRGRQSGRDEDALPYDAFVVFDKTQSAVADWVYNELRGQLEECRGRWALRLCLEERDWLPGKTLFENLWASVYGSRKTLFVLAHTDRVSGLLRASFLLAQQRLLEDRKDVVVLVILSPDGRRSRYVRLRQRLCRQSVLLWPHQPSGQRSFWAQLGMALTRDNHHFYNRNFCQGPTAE

IC50 [1] | IC50 [2] | IC50 [3] | Compound
6.36 µM | 0.034 µM | 0.03 µM | Cc1cc(-c2[nH]c3ccc(-c4nnc(N)o4)cc3c2C(C)C)cc(C)n1 [Example 318, 5-(2-(2,6-dimethylpyridin-4-yl)-3-isopropyl-1H-indol-5-yl)-1,3,4-oxadiazol-2-amine]
0.564 µM | 0.0018 µM | 0.027 µM | Cc1cc(-c2[nH]c3ccc(-c4nnc(C5CCCN(C)C5)o4)cc3c2C(C)C)ccn1 (stereo not drawn) [Example 169, 2-(3-isopropyl-2-(2-methylpyridin-4-yl)-1H-indol-5-yl)-5-(1-methylpiperidin-3-yl)-1,3,4-oxadiazole]
0.706 µM | 0.0039 µM | 0.075 µM | COc1ccc(-c2[nH]c3ccc(-c4nnc(C[C@H]5CCCCN5)o4)cc3c2C(C)C)cc1OC [Example 54, (R)-2-(2-(3,4-dimethoxyphenyl)-3-isopropyl-1H-indol-5-yl)-5-(piperidin-2-ylmethyl)-1,3,4-oxadiazole]
> 50 µM | 0.685 µM | 0.742 µM | Cc1cc(-c2[nH]c3ccc(-c4csc(N5CCCCC5)n4)cc3c2C(C)C)cc(C)n1 [Example 350, 4-(2-(2,6-dimethylpyridin-4-yl)-3-isopropyl-1H-indol-5-yl)-2-(piperidin-1-yl)thiazole]
1.07 µM | 0.0075 µM | 0.032 µM | COc1ccc(-c2[nH]c3ccc(-c4ccc(N5CCN(C)CC5)nc4)cc3c2C(C)C)cc1OC [Example 392, 2-(3,4-dimethoxyphenyl)-3-isopropyl-5-(6-(4-methylpiperazin-1-yl)pyridin-3-yl)-1H-indole]
0.326 µM | 0.0047 µM | 0.013 µM | Cc1cc(-c2[nH]c3ccc(-c4ccc(C(=O)N5CCC(N(C)C)CC5)cc4)cc3c2C(C)C)ccn1 [Example 313, (4-(dimethylamino)piperidin-1-yl)(4-(3-isopropyl-2-(2-methylpyridin-4-yl)-1H-indol-5-yl)phenyl)methanone]
0.592 µM | 0.0012 µM | 0.019 µM | Cc1cc(-c2[nH]c3ccc(-c4nnc([C@@H]5CCCNC5)o4)cc3c2C(C)C)ccn1 [Example 80, (R)-2-(3-isopropyl-2-(2-methylpyridin-4-yl)-1H-indol-5-yl)-5-(piperidin-3-yl)-1,3,4-oxadiazole]
13 µM | 0.061 µM | 0.44 µM | Cc1cc(-c2[nH]c3ccc(-c4nc(C(=O)NCC5CCNC5)co4)cc3c2C(C)C)ccn1 (stereo not drawn) [Example 197, 2-(3-isopropyl-2-(2-methylpyridin-4-yl)-1H-indol-5-yl)-N-(pyrrolidin-3-ylmethyl)oxazole-4-carboxamide]
> 50 µM | 0.127 µM | 1.42 µM | CC(=O)N1CCCN(Cc2nnc(-c3ccc4[nH]c(-c5ccnc6[nH]ncc56)c(C(C)C)c4c3)o2)CC1 [Example 155, 1-(4-((5-(3-isopropyl-2-(1H-pyrazolo[3,4-b]pyridin-4-yl)-1H-indol-5-yl)-1,3,4-oxadiazol-2-yl)methyl)-1,4-diazepan-1-yl)ethan-1-one]
> 50 µM | 0.009 µM | 0.0064 µM | CC(=O)N1CCc2nc(-c3ccc4[nH]c(-c5cc(C)nc(C)c5)c(C(C)C)c4c3)sc2C1 [Example 362, 1-(2-(2-(2,6-dimethylpyridin-4-yl)-3-isopropyl-1H-indol-5-yl)-6,7-dihydrothiazolo[5,4-c]pyridin-5(4H)-yl)ethan-1-one]
20.8 µM | 0.014 µM | 0.0098 µM | CNC(=O)c1c(-c2ccc3[nH]c(-c4ccnc(C)c4)c(C(C)C)c3c2)nn2c1CNCC2 [Example 215, 2-(3-isopropyl-2-(2-methylpyridin-4-yl)-1H-indol-5-yl)-N-methyl-4,5,6,7-tetrahydropyrazolo[1,5-a]pyrazine-3-carboxamide]
> 50 µM | 0.279 µM | 0.225 µM | COc1ccc(-c2[nH]c3ccc(-c4nnc(CN5CCC[C@H]5C(N)=O)o4)cc3c2C(C)C)cc1OC [Example 122, (S)-1-((5-(2-(3,4-dimethoxyphenyl)-3-isopropyl-1H-indol-5-yl)-1,3,4-oxadiazol-2-yl)methyl)pyrrolidine-2-carboxamide]
2.12 µM | 0.0056 µM | 0.0086 µM | Cc1cc(-c2[nH]c3ccc(-c4ccc(N)nn4)cc3c2C(C)C)cc(C)n1 [Example 349, 6-(2-(2,6-dimethylpyridin-4-yl)-3-isopropyl-1H-indol-5-yl)pyridazin-3-amine]
3.29 µM | 0.0068 µM | 0.121 µM | COc1ccc(-c2[nH]c3ccc(-c4cccc(C(=O)N5CCCN(C)CC5)c4)cc3c2C(C)C)cc1OC [Example 5, (3-(2-(3,4-dimethoxyphenyl)-3-isopropyl-1H-indol-5-yl)phenyl)(4-methyl-1,4-diazepan-1-yl)methanone]
0.316 µM | 0.057 µM | 0.244 µM | CNCCN1CCC(c2nnc(-c3ccc4[nH]c(-c5ccc(OC)c(OC)c5)c(CC(F)(F)F)c4c3)o2)CC1 [Example 67, 2-(4-(5-(2-(3,4-dimethoxyphenyl)-3-(2,2,2-trifluoroethyl)-1H-indol-5-yl)-1,3,4-oxadiazol-2-yl)piperidin-1-yl)-N-methylethan-1-amine]
> 50 µM | 0.071 µM | 0.264 µM | Cc1cc(-c2[nH]c3ccc(-c4cnc(N)nc4)cc3c2C(C)C)ccn1 [Example 193, 5-(3-isopropyl-2-(2-methylpyridin-4-yl)-1H-indol-5-yl)pyrimidin-2-amine]
3.24 µM | 0.017 µM | 0.065 µM | COc1ccc(-c2[nH]c3ccc(-c4cnc(N5CCN(C)CC5)nc4)cc3c2C(C)C)cc1OC [Example 432, 2-(3,4-dimethoxyphenyl)-3-isopropyl-5-(2-(4-methylpiperazin-1-yl)pyrimidin-5-yl)-1H-indole]
> 50 µM | 0.019 µM | 1.79 µM | COc1ccc(-c2[nH]c3ccc(-c4cccc(C(=O)N[C@H]5CC[C@H](C(C)(C)O)CC5)c4)cc3c2C(C)C)cc1OC [Example 7, 3-(2-(3,4-dimethoxyphenyl)-3-isopropyl-1H-indol-5-yl)-N-((1r,4r)-4-(2-hydroxypropan-2-yl)cyclohexyl)benzamide]
0.589 µM | 0.0022 µM | 0.0048 µM | CNCCNc1ccc(-c2ccc3[nH]c(-c4cc(C)nc(C)c4)c(C(C)C)c3c2)cn1 [Example 239, N1-(5-(2-(2,6-dimethylpyridin-4-yl)-3-isopropyl-1H-indol-5-yl)pyridin-2-yl)-N2-methylethane-1,2-diamine]
46.5 µM | 0.031 µM | 0.018 µM | Cc1cc(-c2[nH]c3ccc(-c4ccc(N5CCC5)nc4)cc3c2C(C)C)cc(C)n1 [Example 338, 5-(6-(azetidin-1-yl)pyridin-3-yl)-2-(2,6-dimethylpyridin-4-yl)-3-isopropyl-1H-indole]
11.3 µM | 0.019 µM | 0.306 µM | CCc1c(-c2ccc(OC)c(OC)c2)[nH]c2ccc(-c3noc(CCN(C)C)n3)cc12 [Example 454, 2-(3-(2-(3,4-dimethoxyphenyl)-3-ethyl-1H-indol-5-yl)-1,2,4-oxadiazol-5-yl)-N,N-dimethylethan-1-amine]
0.621 µM | 0.0017 µM | 0.025 µM | CNCCc1nnc(-c2ccc3[nH]c(-c4ccnc(C)c4)c(C(C)C)c3c2)o1 [Example 142, 2-(5-(3-isopropyl-2-(2-methylpyridin-4-yl)-1H-indol-5-yl)-1,3,4-oxadiazol-2-yl)-N-methylethan-1-amine]
> 50 µM | 0.082 µM | 0.038 µM | COc1ccc(-c2[nH]c3ccc(-c4nnc(CNCCOCCO)o4)cc3c2C(C)C)cc1OC [Example 112, 2-(2-(((5-(2-(3,4-dimethoxyphenyl)-3-isopropyl-1H-indol-5-yl)-1,3,4-oxadiazol-2-yl)methyl)amino)ethoxy)ethan-1-ol]
0.672 µM | 0.214 µM | 0.045 µM | Cc1cn2cc(-c3[nH]c4ccc(-c5ccc(N6CCNCC6)nc5)cc4c3C(C)C)ccc2n1 [Example 334, 6-(3-isopropyl-5-(6-(piperazin-1-yl)pyridin-3-yl)-1H-indol-2-yl)-2-methylimidazo[1,2-a]pyridine]
0.625 µM | 0.0095 µM | 0.042 µM | CNCC(=O)N1CCC(c2nnc(-c3ccc4[nH]c(-c5ccc(OC)c(OC)c5)c(C(C)C)c4c3)o2)CC1 [Example 18, 1-(4-(5-(2-(3,4-dimethoxyphenyl)-3-isopropyl-1H-indol-5-yl)-1,3,4-oxadiazol-2-yl)piperidin-1-yl)-2-(methylamino)ethan-1-one]
0.437 µM | 0.0027 µM | 0.025 µM | Cc1cc(-c2[nH]c3ccc(-c4nnc(C5CCCN(C(C)C)C5)o4)cc3c2C(C)C)ccn1 (stereo not drawn) [Example 298, 2-(3-isopropyl-2-(2-methylpyridin-4-yl)-1H-indol-5-yl)-5-(1-isopropylpiperidin-3-yl)-1,3,4-oxadiazole]
> 50 µM | 0.429 µM | 1.28 µM | COc1ccc(-c2[nH]c3ccc(-c4cccc(-c5ccc6nonc6c5)c4)cc3c2C(C)C)cc1OC [Example 409, 5-(3-(2-(3,4-dimethoxyphenyl)-3-isopropyl-1H-indol-5-yl)phenyl)benzo[c][1,2,5]oxadiazole]

Compound | IC50 [1] | IC50 [2] | IC50 [3]
Cc1cc(-c2[nH]c3ccc(-c4nnc(C5CN6CCC5CC6)o4)cc3c2C(C)C)ccn1 (stereo not drawn) [Example 231, 2-(3-isopropyl-2-(2-methylpyridin-4-yl)-1H-indol-5-yl)-5-(quinuclidin-3-yl)-1,3,4-oxadiazole] | 0.895 µM | 0.0059 µM | 0.069 µM
